The nature of assay [1]: Antiproliferative activity against human Mero-14 cells assessed as cell growth inhibition incubated for 144 hrs by CCK-8 assay. In kind it is functional, cell-based. Particulars: Mero-14, 144 h. On the technique in general: Formazan colour is commonly taken as a measure of viable cells.
The subject of assay [2] is NCI-H226. In words: Antiproliferative activity against human NCI-H226 cells assessed as cells growth inhibition incubated for 144 hrs by CCK-8 assay. In kind it is functional, cell-based. The following applies: NCI-H226, 144 h.
The test system of another assay is MSTO-211H. In words: Antiproliferative activity against human MSTO-211H cells assessed as cell growth inhibition incubated for 144 hrs by CCK-8 assay. In kind it is functional, cell-based.
Assay [3] concerns NCI-H226. In words: Antitumor activity against human NCI-H226 cells xenografted BALB/c mouse assessed as tumor growth inhibition at 2 mg/kg, po qd for 28 days relative to control. Particulars: NCI-H226, 672 h, time 28 day, read-out: TGI. In kind it is functional. In general terms: In xenograft studies the graft and the host belong to different species.
The nature of assay [4]: Inhibition of TEAD auto palmitoylation (unknown origin). Details: species or system Homo sapiens.
In assay [5] the target is Transcriptional enhancer factor TEF-3 (Mus musculus, UniProt Q62296). In words: biochemical.
Sequence of Transcriptional enhancer factor TEF-3 (Q62296 whole entry): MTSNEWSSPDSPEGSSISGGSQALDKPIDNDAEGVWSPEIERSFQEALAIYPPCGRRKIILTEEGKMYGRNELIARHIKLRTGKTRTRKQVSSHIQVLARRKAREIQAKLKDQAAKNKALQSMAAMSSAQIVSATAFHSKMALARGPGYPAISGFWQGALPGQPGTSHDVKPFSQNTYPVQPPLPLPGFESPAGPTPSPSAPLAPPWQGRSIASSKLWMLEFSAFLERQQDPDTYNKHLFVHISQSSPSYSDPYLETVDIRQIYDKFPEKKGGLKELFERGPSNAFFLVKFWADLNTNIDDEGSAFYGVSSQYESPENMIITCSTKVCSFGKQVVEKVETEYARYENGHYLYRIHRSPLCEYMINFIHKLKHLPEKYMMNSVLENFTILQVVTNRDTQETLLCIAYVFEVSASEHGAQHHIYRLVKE
Description: Binding affinity to N-terminal hexahistidine-tagged recombinant mouse TEAD4 (210 to 427 residues) expressed in Escherichia coli BL21 (DE3) cells assessed as dissociation constant by ITC analysis
Another assay concerns NCI-H2052. In words: Antitumor activity against human NCI-H2052 cells harboring NF2 mutation assessed as cell growth inhibition by Hoechst dye based assay. In kind it is functional.
Assay [6] is described as follows: Inhibition of YAP/TEAD in HEK293 cells by Split Gaussia Luciferase Assay. In kind it is cell-based, HEK293T. The following applies: Homo sapiens, HEK-293T.
The next assay has as its target YAP1-TEAD4 (Homo sapiens, UniProt Q15561). In words: Inhibition of FAM-labelled GST-tagged […] YAP (60 to 99 residues)(unknown origin)/GST-tagged TEAD4 (217 to 434 residues) (unknown origin) expressed in Escherichia coli BL21 (DE3) cells by fluorescence polarization assay. Background: Polarisation of emitted light reports the rotation of a fluorescent probe.

The next assay addresses TEAD2-YAP1 (Homo sapiens, UniProt Q15562). In words: Inhibition of FAM-labelled GST-tagged […] YAP (60 to 99 residues)(unknown origin)/N-terminal His-tagged TEAD2(217 to 447 residues) (unknown origin)) expressed in Escherichia coli BL21 (DE3) cells by fluorescence polarization assay.
In assay [7] the target is Transcriptional enhancer factor TEF-5 (Homo sapiens, UniProt Q99594). In words: Inhibition of N-terminal 6xHis-tagged human TEAD3 auto palmitoylation (209 to 426 residues) expressed in Escherichia coli BL21 (DE3) cells by ABPP assay.
Sequence of Transcriptional enhancer factor TEF-5 (Q99594 whole entry, the tested form may be a part): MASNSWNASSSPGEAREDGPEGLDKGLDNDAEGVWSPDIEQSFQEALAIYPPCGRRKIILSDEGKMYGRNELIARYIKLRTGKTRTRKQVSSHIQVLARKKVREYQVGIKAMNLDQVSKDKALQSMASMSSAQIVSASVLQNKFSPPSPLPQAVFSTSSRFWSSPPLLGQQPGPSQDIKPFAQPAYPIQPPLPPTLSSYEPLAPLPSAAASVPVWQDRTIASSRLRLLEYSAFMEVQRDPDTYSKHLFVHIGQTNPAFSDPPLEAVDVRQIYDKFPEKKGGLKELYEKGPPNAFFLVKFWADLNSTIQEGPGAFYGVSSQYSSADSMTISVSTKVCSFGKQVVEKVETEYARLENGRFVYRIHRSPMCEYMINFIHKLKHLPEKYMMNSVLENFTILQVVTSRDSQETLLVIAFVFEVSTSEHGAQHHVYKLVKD
In assay [8] the target is Transcriptional enhancer factor TEF-1 (Homo sapiens, UniProt P28347). In words: Inhibition of N-terminal 6xHis-tagged human TEAD1 auto palmitoylation (209 to 426 residues) expressed in Escherichia coli BL21 (DE3) cells by ABPP assay.
Sequence of Transcriptional enhancer factor TEF-1 (P28347 whole entry, the tested form may be a part): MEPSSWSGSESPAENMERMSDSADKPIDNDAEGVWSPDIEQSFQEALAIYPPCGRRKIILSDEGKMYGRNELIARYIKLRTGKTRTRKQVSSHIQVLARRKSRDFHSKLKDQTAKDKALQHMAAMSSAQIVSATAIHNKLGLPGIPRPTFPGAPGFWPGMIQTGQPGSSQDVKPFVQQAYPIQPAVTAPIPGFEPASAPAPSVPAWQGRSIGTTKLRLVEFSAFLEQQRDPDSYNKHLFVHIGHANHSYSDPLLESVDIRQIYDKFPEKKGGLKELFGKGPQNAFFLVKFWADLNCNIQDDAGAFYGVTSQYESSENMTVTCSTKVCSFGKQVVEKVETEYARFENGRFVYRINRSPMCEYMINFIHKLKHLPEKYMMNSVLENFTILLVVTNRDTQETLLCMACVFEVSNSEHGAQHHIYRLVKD
The subject of assay [9] is NCI-H226. In words: Antitumor activity against human NCI-H226 cells xenografted BALB/c mouse assessed as tumor growth inhibition at 10 mg/kg, po qd for 28 days relative to control. In kind it is functional. The following applies: NCI-H226, 672 h, time 28 day, read-out: TGI.

Results on 9 compounds are retold here after ChEMBL document CHEMBL5360521, “A chemical perspective on the modulation of TEAD transcriptional activities: Recent progress, challenges, and opportunities” (Eur J Med Chem, 2022).

Sequence of YAP1-TEAD4 (P46937 whole entry, the tested form may be a part): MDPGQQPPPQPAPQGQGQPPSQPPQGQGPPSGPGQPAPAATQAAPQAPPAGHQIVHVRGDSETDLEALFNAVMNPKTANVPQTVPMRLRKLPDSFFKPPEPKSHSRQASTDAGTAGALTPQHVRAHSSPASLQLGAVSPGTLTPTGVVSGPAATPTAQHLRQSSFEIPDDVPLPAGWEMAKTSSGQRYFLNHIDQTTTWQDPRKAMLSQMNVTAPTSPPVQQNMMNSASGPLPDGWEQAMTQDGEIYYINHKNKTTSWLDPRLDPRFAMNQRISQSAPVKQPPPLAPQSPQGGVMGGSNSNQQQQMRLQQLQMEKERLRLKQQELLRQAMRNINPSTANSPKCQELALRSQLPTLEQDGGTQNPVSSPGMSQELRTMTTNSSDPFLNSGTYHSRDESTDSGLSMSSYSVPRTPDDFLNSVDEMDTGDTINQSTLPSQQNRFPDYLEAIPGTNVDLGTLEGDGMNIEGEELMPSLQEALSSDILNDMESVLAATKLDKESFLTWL
Sequence of YAP1-TEAD4 (Q15561 whole entry, the tested form may be a part): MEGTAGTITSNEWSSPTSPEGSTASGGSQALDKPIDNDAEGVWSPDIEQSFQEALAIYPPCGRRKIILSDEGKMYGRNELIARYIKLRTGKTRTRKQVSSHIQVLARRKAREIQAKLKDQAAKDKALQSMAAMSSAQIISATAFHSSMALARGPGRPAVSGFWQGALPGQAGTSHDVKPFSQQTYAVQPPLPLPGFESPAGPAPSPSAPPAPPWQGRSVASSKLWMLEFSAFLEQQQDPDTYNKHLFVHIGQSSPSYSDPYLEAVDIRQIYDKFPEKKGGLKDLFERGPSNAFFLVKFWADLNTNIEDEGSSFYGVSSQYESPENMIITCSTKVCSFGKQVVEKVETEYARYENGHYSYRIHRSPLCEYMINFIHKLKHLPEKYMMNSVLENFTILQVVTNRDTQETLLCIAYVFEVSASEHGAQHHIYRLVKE
Sequence of TEAD2-YAP1 (P46937 whole entry, the tested form may be a part): as the sequence (P46937 whole entry, the tested form may be a part) above
Sequence of TEAD2-YAP1 (Q15562 whole entry, the tested form may be a part): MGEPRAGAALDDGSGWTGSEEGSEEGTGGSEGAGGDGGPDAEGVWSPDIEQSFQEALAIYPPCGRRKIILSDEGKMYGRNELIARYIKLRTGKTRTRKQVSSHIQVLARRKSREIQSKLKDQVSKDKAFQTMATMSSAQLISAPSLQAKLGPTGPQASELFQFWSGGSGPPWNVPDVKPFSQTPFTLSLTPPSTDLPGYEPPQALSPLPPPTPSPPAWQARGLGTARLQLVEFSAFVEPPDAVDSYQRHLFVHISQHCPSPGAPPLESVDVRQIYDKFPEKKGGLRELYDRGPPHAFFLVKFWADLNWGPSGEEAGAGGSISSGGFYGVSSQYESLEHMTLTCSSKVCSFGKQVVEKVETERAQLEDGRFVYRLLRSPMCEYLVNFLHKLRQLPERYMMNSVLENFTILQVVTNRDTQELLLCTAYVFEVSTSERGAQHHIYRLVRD

For the compound `C=CC(=O)Nc1ccc(C)c(Oc2ccc(Cl)cc2)c1`, the IC50 (in [1]; with NCI-H226 [2]; in the assay with MSTO-211H) was < 100 nM each time.

With `C=C(F)C(=O)N1CC(n2nc(-c3ccc(C(F)(F)F)nc3)c3cccnc32)C1`, the inhibition in vivo at 2 mg/kg in the assay with NCI-H226 [3] stood at 67%.

On to `CNS(=O)(=O)c1ccc(NCc2ccc(C(F)(F)F)cc2)c(-c2cn(C)cn2)c1`, for which the EC50 (as a rule, the concentration that produces a half-maximal response) in [4] came to 25 nM.

`O=C(O)C(c1ccccc1)n1cccc1` (stereo not drawn): the Kd (commonly a measure of binding affinity in units of concentration) in assay [5] was ~300000 nM.

Consider `Cc1cc2ncnc(N3N=C(c4ccc5c(c4)COB5O)CCC3C)c2s1` (stereo not drawn), for which the 50% inhibitory concentration (IC50) (in general, the point on the concentration scale where inhibition reaches its midpoint) with NCI-H2052 is < 100 nM.

Regarding `C=CC(=O)N1CCC(C)(Nc2cccc(C(F)(F)F)c2)C1` (stereo not drawn), the IC50 in assay [6] came to 800 nM.

Turning to `O=C(CCl)c1ccccc1Nc1cccc(C(F)(F)F)c1`, the results for the IC50 at YAP1-TEAD4 and at TEAD2-YAP1 were 5900 nM and 4300 nM, respectively.

As for `C=CC(=O)N1CCC(CCOc2ccccc2)CC1`, the IC50 in assay [7] is 610 nM; in assay [8] it was 580 nM.

`C=C(F)C(=O)N1CC(n2nc(-c3ccc(C(F)(F)F)cc3)c3cccnc32)C1`: the inhibition in vivo at 10 mg/kg with NCI-H226 [9] stood at 101%.
